Data taken from US20220151979A1, “COMPOSITION FOR PREVENTION OR TREATMENT OF CARDIOVASCULAR AND METABOLIC DISEASE COMPRISING NORANHYDROICARITIN” (SEOUL NATIONAL UNIVERSITY HOSPITAL, priority 2019, published 2022).

Columns and labels:
Assay type in all cases: cell-based, human
PCSK9 promoter = assay: PCSK9 promoter-reporter luciferase assay in HEK293T cells; conditions: pGL4.14-PCSK9-transfected HEK293T cells, 2.5-20 μM, 18 hours
Experimental: In order to confirm the PCSK9 gene expression inhibitory effect of noranhydroicaritin, HEK293T cells were treated with noranhydroicaritin at various concentrations, and it was confirmed whether the expression of PCSK9 was inhibited through a luciferase assay.
i) A primer was prepared to contain KpnI and XhoI restriction enzyme sites in the PCSK9 promoter gene region, and then PCR (polymerase chain reaction) and electrophoresis on an agarose gel were performed to isolate PCSK9 promoter region DNA. A pGL4.14-[luc2/Hygro] vector containing a firefly luciferase as a reporter gene was treated with the same restriction enzymes (KpnI and XhoI), and then isolated via agarose gel electrophoresis and gel extraction. […]
ii) In order to measure the transcriptional activity of the PCSK9 promoter gene, HEK293T cells were transfected with pGL4.14-PCSK9, and then the luciferase activity of the cell extract was measured. […]
iii) After 18 hours of incubation, cells were washed with PBS one time, an appropriate amount of luciferase reagent was added to each well, then the plate was shaken for 15 min, the supernatant was obtained, and the transcriptional activity was measured. Passive lysis buffer was used, and the luciferase activity was measured using a microplate luminometer (Tecan). […]

LDLR = assay: Immunoblot of LDLR in HepG2 cells; conditions: HepG2 cells, 5, 10, 20 μM
Experimental: In order to confirm the effect of noranhydroicaritin to inhibit PCSK9 expression and increase LDLR expression, immunoblotting targeting PCSK9 and LDLR was performed and the expression levels were compared. β-Actin was used as a control.
In a 100 mm Petri dish, 1×10^6 HepG2 cells were aliquoted and treated with noranhydroicaritin at various concentrations (5 μM, 10 μM, and 20 μM), and then the cells were removed from the cell-culture dish and homogenized using a protein extraction solution (NP40, ELPIS BIOTECH, Korea) containing a protease inhibitor cocktail (Roche).
In order to prepare the total protein, the cells were extracted in RIPA lysis buffer (50 mM Tris-HCl (pH 7.4), 150 mM NaCl, 5 mM EDTA, 5 mM EGTA, 5 mM sodium fluoride, 2 mM sodium orthovanadate, 1% NP-40, 0.1% sodium dodecyl sulfate [SDS], 1 mM phenylmethylsulfonyl fluoride [PMSF], and protein inhibitor cocktail [Roche Diagnostics, Heidelberg, Germany]). The protein concentration in the lysate was measured using the Bio-Rad dye-binding micro assay. For immunoblotting, 30 μg of cell lysate was isolated via SDS-polyacrylamide gel electrophoresis (PAGE). The proteins were transferred onto the Hybond-ECL nitrocellulose membrane (Amersham Biosciences, Buckinghamshire, UK). […] HRP-conjugated secondary antibodies were detected using an ECL detection reagent.

PPARγ = PPARγ expression in HepG2 cells (RealTime-PCR, immunohistochemistry)
Experimental: In order to confirm the effect of increasing the expression of PPARα and PPARγ of noranhydroicaritin, PCR using PPARα primers and immunohistochemistry targeting PPARα and PPARγ were performed to confirm the expression levels.
Using cDNA synthesized with RNA according to the method of Example 4, the quantities of PPARα mRNA and PPARγ mRNA were confirmed through RealTime-PCR analysis. The group treated only with DMSO was used as a negative control. For immunohistochemistry, HepG2 cells were attached to a slide chamber, then treated with noranhydroicaritin at 20 μM, and incubated. After fixation with formalin, the HepG2 cells were stained with antibodies targeting PPARα and PPARγ, and treated with DAPI to stain nuclei, and the degree of fluorescent expression was confirmed using a confocal microscope.

PCSK9 = assay: Immunoblot of PCSK9 in HepG2 cells, noranhydroicaritin and statin singly or in combination; conditions: treated singly
Experimental: The cells aliquoted by the method of Example 7 were treated with noranhydroicaritin or a statin (atorvastatin or rosuvastatin) singly or with noranhydroicaritin and a statin (atorvastatin or rosuvastatin) simultaneously, and the proteins were extracted. On an SDS-polyacrylamide gel, 30 μg of each protein was electrophoresed, and attached to a membrane, and then protein expression levels were confirmed using the respective antibodies: phospho-AMPK, PCSK9, LDLR, and PPARγ.

## CC(C)=CCc1c(O)cc(O)c2c(=O)c(O)c(-c3ccc(O)cc3)oc12 [Noranhydroicaritin, noranhydroicaritin]
PCSK9 promoter
  PCSK9 luciferase activity: decreased in a noranhydroicaritin concentration-dependent manner
LDLR
  LDLR expression (immunoblot): increased in a concentration-dependent manner
PPARγ
  expression of PPARγ: increased in a concentration-dependent manner
PCSK9
  quantity of PCSK9 (immunoblot): decreased
